Measurements taken from US9469615B2, “Quinoxalines and AZA-quinoxalines as CRTH2 receptor modulators” (Merck Sharp & Dohme Corp., priority 2010, dated 2016).
pKi: −log10 of the molar value.

What follows are molecules tested against T1, hCRTH2 (Homo sapiens, UniProt Q9Y5Y4) (assay: Radioligand binding assay ([3H]PGD2 competition, HEK-hCRTH2 membranes)). Conditions: [3H]PGD2 competition, Table B.
T1 construct: expressed in transfected cells; host or cells: HEK (human embryonic kidney) cells expressing hCRTH2; membrane preparation
T1 sequence (Q9Y5Y4 1-395): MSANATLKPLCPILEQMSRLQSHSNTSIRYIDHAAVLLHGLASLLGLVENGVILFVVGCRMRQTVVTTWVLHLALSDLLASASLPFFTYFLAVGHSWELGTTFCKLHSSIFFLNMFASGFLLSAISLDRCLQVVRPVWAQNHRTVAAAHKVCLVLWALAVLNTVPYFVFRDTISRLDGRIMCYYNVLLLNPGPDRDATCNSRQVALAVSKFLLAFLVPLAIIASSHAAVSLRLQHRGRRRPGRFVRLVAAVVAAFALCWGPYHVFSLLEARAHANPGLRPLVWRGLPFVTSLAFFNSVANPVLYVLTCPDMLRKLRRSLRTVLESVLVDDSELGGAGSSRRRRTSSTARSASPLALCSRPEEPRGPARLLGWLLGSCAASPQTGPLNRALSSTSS
Outline: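 Competition against 3.0 nM [3H]PGD2 was run for 60 min at room temperature in pH 7.4 Tris-HCl buffer with EDTA, 2 mM MnCl2 and 1% DMSO, using 8-20 μg HEK-hCRTH2 membrane protein. 10 μM PGD2 set non-specific binding; filter-bound counts were read by scintillation.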

`O=C(O)CCCCc1nc2cc(C(=O)N[C@@H]3CCCc4ccccc43)c(F)cc2nc1-c1ccc(F)cc1` [compound 717, (R)-5-(6-fluoro-3-(4-fluorophenyl)-7-((1,2,3,4-tetrahydronaphthalen-1-yl)carbamoyl)quinoxalin-2-yl)pentanoic acid] and `O=C(O)CCCCc1nc2cc(C(=O)N[C@@H]3CCCc4ccccc43)c(F)cc2nc1-c1ccc(Cl)cc1` [compound 718, (R)-5-(3-(4-chlorophenyl)-6-fluoro-7-((1,2,3,4-tetrahydronaphthalen-1-yl)carbamoyl)quinoxalin-2-yl)pentanoic acid] fall in the same range of pKi: 7.70 to 8.68 for the first, 7.70 to 8.68 for the second.

`O=C(O)CCCCc1nc2cc(C(=O)N3C4C=C(c5ccccc5)CC3CC4)ccc2nc1-c1ccccc1` (centres unmarked) [compound 719, 5-(3-phenyl-7-(3-phenyl-8-azabicyclo[3.2.1]oct-2-ene-8-carbonyl)quinoxalin-2-yl)pentanoic acid] and `CC1(C)CC[C@H](NC(=O)c2ccc3nc(-c4ccccc4)c(CCCCC(=O)O)nc3c2)c2ccccc21` [compound 721, (S)-5-(7-((4,4-dimethyl-1,2,3,4-tetrahydronaphthalen-1-yl)carbamoyl)-3-phenylquinoxalin-2-yl)pentanoic acid] fall in the same range of pKi: 7.70 to 8.68 for the first, 7.70 to 8.68 for the second.

First: O=C(O)CCCCc1nc2cc(C(=O)N[C@@H]3CCOc4cc(C(F)(F)F)ccc43)ccc2nc1-c1ccc(Cl)cc1 [compound 720, (R)-5-(3-(4-chlorophenyl)-7-((7-(trifluoromethyl)chroman-4-yl)carbamoyl)quinoxalin-2-yl)pentanoic acid]
Second: O=C(O)CCCc1nc2cc(C(=O)N[C@@H]3CCOc4cc(F)ccc43)ccc2nc1-c1ccccc1 [compound 725, (R)-4-(7-((7-fluorochroman-4-yl)carbamoyl)-3-phenylquinoxalin-2-yl)butanoic acid]
The pKi of the first is higher: 7.70 to 8.68 for the first, 6.15 to 6.70 for the second. The first binds more tightly here.

First: CC1(C)CC[C@@H](NC(=O)c2ccc3nc(-c4ccccc4)c(CCCCC(=O)O)nc3c2)c2ccccc21 [compound 722, (R)-5-(7-((4,4-dimethyl-1,2,3,4-tetrahydronaphthalen-1-yl)carbamoyl)-3-phenylquinoxalin-2-yl)pentanoic acid]
Second: O=C(O)CCCc1nc2cc(C(=O)N[C@@H]3CCCc4ccccc43)ccc2nc1-c1ccccc1 [compound 724, (R)-4-(3-phenyl-7-((1,2,3,4-tetrahydronaphthalen-l-yl)carbamoyl)quinoxalin-2-yl)butanoic acid]
The pKi of the first is higher: 7.70 to 8.68 for the first, 6.15 to 6.70 for the second.

Compared with `O=C(O)CCCc1nc2cc(C(=O)N[C@@H]3CCCc4cc(F)ccc43)ccc2nc1-c1ccccc1` [compound 723, (R)-4-(7-((6-fluoro-1,2,3,4-tetrahydronaphthalen-1-yl)carbamoyl)-3-phenylquinoxalin-2-yl)butanoic acid], `O=C(O)CCCCc1nc2cc(C(=O)N[C@@H]3CCOc4ccccc43)c(F)cc2nc1-c1ccccc1` [compound 728, (R)-5-(7-(chroman-4-ylcarbamoyl)-6-fluoro-3-phenylquinoxalin-2-yl)pentanoic acid] is higher in pKi: 6.70 to 7.70 for the first, 7.70 to 8.68 for the second.

Molecule `C[C@@H](NC(=O)c1cc2nc(CCCCC(=O)O)c(-c3ccccc3)nc2cc1F)c1ccc(F)cc1` [compound 727, (R)-5-(6-fluoro-7-((1-(4-fluorophenyl)ethyl)carbamoyl)-3-phenylquinoxalin-2-yl)pentanoic acid] has a pKi of 7.70 to 8.68.
